Values belong to the compound of their own block, whether it stands above or below them.
What was measured:
MDR1 = assay: Intrinsic permeability of the compound in MDCK cells expressing MDR1; type: ADME, cell-based, Canis lupus familiaris; settings: dog
[1] = Tmax in po dosed rat; type: ADME, organism-based; settings: in vivo
[2] = Half life in Sprague-Dawley rat at 1 mg/kg, iv; type: ADME, organism-based; set-up: dose 1 mg/kg, route intravenous; settings: in vivo
Liver [3] = assay: Clearance in rat liver assessed per gram of tissue; type: ADME, tissue-based; settings: in vivo
[4] = Blood clearance in Sprague-Dawley rat at 1 mg/kg, iv; type: ADME, organism-based; set-up: dose 1 mg/kg, route intravenous
[5] = Oral bioavailability in Sprague-Dawley rat at 3 mg/kg; type: ADME, organism-based; settings: in vivo
[6] = Ratio of drug level in brain to blood in CD1 mouse at 5 mg/kg, po after 3 hrs; type: ADME, organism-based; set-up: dose 5 mg/kg, route oral
[7] = Tmax in Sprague-Dawley rat at 3 mg/kg, po; type: ADME, organism-based; set-up: dose 3 mg/kg, route oral; settings: in vivo
Liver [8] = assay: Clearance in human liver assessed per gram of tissue; type: ADME, tissue-based
[9] = Ratio of drug level in brain to blood in Lister Hooded rat at 3 mg/kg, po after 3 hrs; type: ADME, organism-based; set-up: dose 3 mg/kg, route oral
Blood = assay: Drug level in novel object recognition model of rat blood at 0.1 mg/kg, po; type: ADME, organism-based; set-up: dose 0.1 mg/kg, route oral; settings: in vivo, read-out: Drug uptake

- Papp (MDR1): 4.2 ×10⁻⁶ cm/s
SMILES: O=C(Nc1ccc(-c2nnc(NCCCN3CCN4CCC3CC4)o2)cc1)c1ccccc1F

- Tmax [1]: 3 h
SMILES: COc1cc(NC(=O)c2ccccc2F)ccc1-c1nnc(NCCCN2CCCCC2)o1

- half-life [2]: 1.6 h
- CLH (Liver [3]): 0.8 mL/min/g
- clearance [4]: 37 mL/min/kg
- Papp (MDR1): 75.6 ×10⁻⁶ cm/s
- bioavailability [5]: 22%
- Kp at 3 h [6]: 0.62
- Tmax [7]: 1 h
- CLH (Liver [8]): < 0.5 mL/min/g
SMILES: O=C(Nc1ccc(-c2nnc(NCCCCN3CCOCC3)o2)cc1)c1ccccc1F

- half-life [2]: 2.7 h
- CLH (Liver [3]): < 0.5 mL/min/g
- clearance [4]: 42 mL/min/kg
- Papp (MDR1): 127 ×10⁻⁶ cm/s
- Kp at 3 h [9]: 0.99
- CLH (Liver [8]): 0.5 mL/min/g
SMILES: O=C(Nc1ccc(-c2nnc(NCCCCN3CCCCC3)o2)cc1)c1ccccc1F

- Papp (MDR1): 33.7 ×10⁻⁶ cm/s
SMILES: O=C(Nc1ccc(-c2nnc(NCCCCN3CCCCC3)o2)cc1)c1ccccc1

- Papp (MDR1): 9.8 ×10⁻⁶ cm/s
SMILES: O=C(Nc1ccc(-c2nnc(NCCCCN3CCCCC3)o2)cc1)C1CCCCC1

- Papp (MDR1): 25.1 ×10⁻⁶ cm/s
SMILES: COc1cc(NC(=O)c2ccccc2F)ccc1-c1nnc(NCCCCN2CCCCC2)o1

- Papp (MDR1): 57.3 ×10⁻⁶ cm/s
SMILES: COc1cc(NC(=O)c2ccccc2F)ccc1-c1nnc(NCCCCN2CCOCC2)o1

- CLH (Liver [3]): < 0.5 mL/min/g
- clearance [4]: 54 mL/min/kg
- Papp (MDR1): 73.6 ×10⁻⁶ cm/s
- bioavailability [5]: 20%
- Kp at 3 h [6]: 0.53
- Tmax [7]: 1 h
- concentration (Blood): 10.5 nM
- CLH (Liver [8]): < 0.5 mL/min/g
SMILES: O=C(Nc1ccc(-c2nnc(NCCCCN3CCOCC3)o2)c(F)c1)c1ccccc1F

- Papp (MDR1): 28.5 ×10⁻⁶ cm/s
SMILES: O=C(Nc1ccc(-c2nnc(NCCCCN3CCOCC3)o2)c(F)c1)c1ccccc1

- Papp (MDR1): 70.3 ×10⁻⁶ cm/s
SMILES: O=C(Nc1ccc(-c2nnc(NCCCCN3CCC(F)CC3)o2)cc1)c1ccccc1F
